This is an account of results in US20090275633A1, “Novel Tumour Suppressor” (ONCOMETHYLOME SCIENCES SA, priority 2006, published 2009).

“Also recorded” adds a separate entry of the source.

In test [1] the test system is colon cancer cell lines (RKO, Co115, HCT-116, SW48, LoVo). In words: Apoptosis by flow cytometry (YO-PRO-1/propidium iodide). Particulars: for apoptosis (propidium iodide): HDAC2-deficient RKO cells, 24 h with SAHA. Type of test: cell-based, human. Further details: apoptosis (propidium iodide): dose or concentration left out as unconfirmed. How it is done:
(§1) FIG. 5. […] Experiments were performed in triplicate.
(§2) Human colorectal and endometrial cancer cell lines were obtained from the American Type Culture Collection. HDAC inhibition treatment was developed adding 0.25 μM trichostatin A, 10 mM sodium valproate or 10 mM sodium butyrate to the culture medium for 24 hours. We obtained DNA samples from 228 human primary malignancies corresponding to colon tumors of HPNCC patients (n=47) and sporadic MSI+colon (n=127), MSI-colon (n=40), gastric (n=38) and endometrial carcinomas (n=16), as well as normal colon tissue (n=6), at the time of clinically indicated surgical procedures. Normal lymphocytes from healthy donors (n=50) was also used. DNA was extracted using standard protocols.
(§3) The percentage of apoptotic cells was determined by flow cytomery using Vybrant® Apoptosis Assay Kit #4-YO-PRO®-1/propidium iodide (Molecular Probes/Invitrogen). To analyze the cell cycle profiles, we stained with propidium iodide and the percentage of cells in G2/M was determined by flow cytometry.
For orientation: In flow cytometry, cells or beads pass a laser one at a time.

For test [2], the system named is histones H3 and H4 in colorectal cancer cell lines RKO, Co115, HCT-116, SW48 and LoVo. In words: Histone H3 and H4 acetylation levels (western blot, HPCE) after treatment with HDAC inhibitors. Type of test: cell-based, human. The settings on record: 24 hours.
Text: To address these issues we assessed the effects of three classical HDACis, the hydroxamic acid trichostatin A and the carboxylic acids butyrate and valproate, on five colorectal cancer cell lines: the HDAC2-mutant cell lines RKO and Co115, and the HDAC2-wild type cell lines HCT-116, SW48 and LoVo. We analyzed the acetylation levels at histones H3 and H4 using western blotting with antibodies raised against tetraacetylated peptides of histones H3 and […], and high-performance capillary electrophoresis (HPCE)^3. […] The HDAC2-deficient cells were resistant to trichostatin A action from a biochemical and also a cellular point of view.
as §2
We prepared histones in accordance with established protocols1. We obtained histones from cell lines and tumor samples in parallel with their matching controls under identical conditions. For cell lines, we isolated nuclei with RSB buffer (10 mM Tris 10 (pH 7.5), 10 mM NaCl and 3 mM MgCl2) containing I—Nonidet-P40 and protease inhibitors. We extracted nuclei with 0.25 M HCl and precipitated them with eight volumes of acetone. For tumors and their normal tissue counterparts, we homogenized samples with a Polytron homogenizer (Brinkman Instruments) in 0.25 M HCl and incubated them with gentle agitation for 4 h. We precipitated the resulting supernatant with eight volumes of acetone. We then fractionated individual histones by reverse-phase HPLC on a Jupiter C18 column. We made comparisons only between samples extracted with identical methodology.
For western blotting, we collected cells by centrifugation and washed cell pellets twice with phosphate-buffered saline buffer. For HDAC2 expression, nuclear extracts were fractionated on a 7.5% SDS-PAGE gel, transferred the fractions to a polyvinylidene difluoride membrane with […] (Immobilon PSQ, Millipore), blocked the membrane in 5% milk PBS-T (phosphate-buffered saline with 0.1% Tween-20) and immunoprobed it with antibodies to HDAC2 (1:1000) and HDAC1 (1:1000; both from Abcam). The acetylated forms of histones 3 and 4 were analyzed as previously described2. We extracted the histones directly from the cell pellets with 0.250 M HCl. We fractionated 10 μg of the acid-extracted proteins on a 10% SDS-PAGE gel. Transferred membranes were immunoprobed with antibodies to acetylated H4 (1:2,000, Upstate) and acetylated H3 (1:50,000, Upstate). We used horseradish peroxidase-conjugated antibody to rabbit IgG (Amersham) at 1:3,000 dilution in PBS-T as the secondary antibody and antibody to H4 (1:3,000; Upstate) as a loading control. For immunolocalization experiments, we grew cells on coverslips and stained them with antibodies against HDAC2 and HDAC1 (Abcam) as previously described. We obtained images with a Leica DMRD photomicroscope coupled to a Leica DC200 camera, processed them using Adobe Photoshop software and analyzed them using public National Institutes of Health Image software. Immunohistochemical staining of HDAC2 was performed using a polyclonal antibody (Abcam, Cambridge, UK) at a 1:1500 dilution. After antigen retrieval with citrate buffer, immunodetection was performed by the DAKO EnVision Visualization Method (DAKO, Glostrup, Denmark), with diaminobenzidine chromogen as the substrate
We quantified global histone H4 acetylation as previously described3. […]
On the technique in general: In western blotting, separated proteins are transferred to a membrane and probed.

The subject of test [3] is HCT116, RKO and Co115 tumor xenografts. In words: Mouse xenograft model with PBS, TSA and BUT treatments. Type of test: in vivo, athymic nude mice. The source says: a, PBS, BUT and TSA treated female athymic nude mice 17 days after injection of RKO (left flank) and HCT116 (right flank) cells.
b, Tumors were excised and weighed. Tumor detail in cm and weight in mg for PBS-, BUT- and TSA-HCT116, RKO and C0115 cells.
c, Effect of the HDAC inhibitors TSA and sodium butyrate (But) on the in vivo growth of HCT116, RKO and C0115. Tumor size was monitored over time and size in mm3. Dark square: PBS treatment, Dark circle: TSA treatment, Dark triangle: BUT treatment.
Six-week-old female athymic nude mice nu/nu (Harlam Sprague-Dawley, Indianapolis, Ind.), housed under specific pathogen-free conditions (Institutional Animal Welfare Committee Agreement), were used for HCT116, RKO and Co115 tumor xenografts. For treatments, animals were randomly separated in three seven-specimens-groups, differentiated for PBS (Control), TSA (Trichostatin A) and BUT (Butyric acid) treatments. Both flanks of each animal were injected s.c. with 106 (HCT116) or 2×106 (RKO and CO115) cells in a total volume of 200 μL of PBS. For transfections assays both flanks of each animal were injected subcutaneously with 2×106 RKO (left) or RKO-HDAC2-transfected (right) cells in a total volume of 200 μL of PBS. Tumor development at the site of injection was evaluated daily. Animals were sacrificed at 21 days. The tumors were then excised and weighed.

The subject of test [4] is colon cancer cell lines (RKO, Co115, HCT-116, SW48, LoVo). In words: Cell viability (MTT assay) of colon cancer cell lines. Type of test: cell-based, human. Particulars: for inhibition of proliferation: all cancer cell lines independently of HDAC2 status. How it is done: Cells were treated for 48 h with different concentrations of TSA (0-1000 nM). Experiments were performed in triplicate.
as §1, §2
Cell viability was determined as previously described5. Aliquots of 1.5×10^4 cells were plated in 96-well microdilution plates. Following overnight cell adherence, experimental media containing the drugs or control media was added to appropriate wells. After 48 hours, the media was replaced by drug-free fresh media (100 μl/well) containing MTT (50 μg). After a 3 hour incubation at 37° C. in 5% CO2 atmosphere, the MTT was removed and MTT-formazan crystals were dissolved in DMSO (100 μl/well). Absorbance at 570 nm was determined on an automatized microtiter plate reader.
On the technique in general: Formazan colour is commonly taken as a measure of viable cells.

Test [5] shares this test system. In words: Cell cycle analysis (percentage of cells in G2/M, propidium iodide flow cytometry). Type of test: cell-based, human. Particulars: for blockage of the cell cycle at G2/M: all cancer cell lines independently of HDAC2 status; for G2/M cell cycle arrest: TSA. The procedure:
as §2, §3

The subject of test [6] is HDAC2-knocked down HCT116 cells. Type of test: cell-based, human. From the text:
(§4) We quantified global histone H4 acetylation as previously described3. We prepared individual histone fractions from cell nuclei and purified them by reverse-phase HPLC on a Jupiter C18 column (Phenomenex, Inc.) with an acetonitrile gradient (20-60%) in 0.3% trifluoroacetic acid, using a HPLC gradient system (Beckman-Coulter). We resolved non-, mono, di-, tri- and tetra-acetylated histone H4 derivatives by HPCE. We used an uncoated fused-silica capillary (Beckman-Coulter; 60.2 cm 75 μm, effective length 50 cm) in a capillary electrophoresis system (P/ACE MDQ, Beckman-Coulter) with 100 mM phosphate buffer (pH 2.0) 0.02% (w/v) HPM-cellulose as running buffer and operating voltages of 12 kV.

For test [7], the system named is RKO-HDAC2-transfected cells. In words: H4 acetylation by HPCE in RKO cells transfected with HDAC2. Type of test: cell-based, human. Particulars: RKO cells transfected with wild-type HDAC2.
Text: b, Quantification of H4 acetylation by HPCE.
as §4
The HDAC2 expression vector pcDNA3-HDAC2 was constructed by cloning the cDNA corresponding to the gene HDAC2 in pcDNA vector (Invitrogen). […] C1ones expressing HDAC2 were selected in complete medium supplemented with 1 mg/mL G418. Stable clones were maintained in complete medium with 1 mg/mL G418. For colony formation experiments, stable G418-resistant colonies were fixed, stained with 2% methylene blue in 60% methanol, and the average number of colonies present in each well was determined.

Where [8] appears, read: all colorectal cell lines irrespective of HDAC2 status, 10 mM sodium valproate or 10 mM sodium butyrate.
Setting [9] is: all cancer cell lines independently of HDAC2 status.
Setting [10] is: HDAC2-proficient cell lines, TSA.
The mark [11] stands for this setting: HDAC2-proficient cell lines, TSA, listed as TSA.

For the compound `O=C(CCCCCCC(=O)Nc1ccccc1)NO` [SAHA, suberoylanilide hydroxamic acid], the “apoptosis (propidium iodide)” value in test [1] was “enhanced resistance”; in test [1] (listed as suberoylanilide hydroxamic acid (SAHA)) it was “unable to efficiently inhibit cell growth and induce apoptosis”.

Consider `CCCC(=O)[O-].[Na+]` [butyrate, sodium butyrate], for which, in test [2] (setting [8]), the “hyperacetylation of histones H3 and H4” value is reported as “induce hyperacetylation in all cells; also recorded: able to induce hyperacetylation”. For the same compound, the tumor shrinkage result in test [3] (all cancer cell lines xenografted in nude mice (HCT-116, RKO, Co115), independently of HDAC2 status) is listed as “induced tumor shrinkage”. For the same compound, the inhibition of proliferation result in test [4] is reported as “significantly inhibited proliferation”. In addition, the “blockage of the cell cycle at G2/M” value in test [5] is reported as “able to induce blockage of the cell cycle at G2/M”. In addition, the induction of apoptosis result in test [1] (setting [9]) is listed as “induced apoptosis”.

Regarding `CC(/C=C/C(=O)NO)=C\[C@@H](C)C(=O)c1ccc(N(C)C)cc1` [trichostatin A], the “hyperacetylation of histones H3 and H4” value in test [2] (HDAC2-deficient RKO and Co115 cell lines, 0.25 μM trichostatin A) was “unable to induce the hyperacetylation”; in test [2] (HDAC2-deficient RKO and Co115 cell lines, 0.25 μM trichostatin A, listed as TSA) it was “does not induce histone hyperacetylation”; in test [2] (HDAC2-wild type cells (HCT-116, SW48, LoVo), 0.25 μM trichostatin A), “effective”; in test [2] (HDAC2-wild type cells (HCT-116, SW48, LoVo), 0.25 μM trichostatin A, listed as TSA) it was “hyperacetylation is achieved”. Also, the “histone H4 acetylation mediated by TSA (HPCE)” value in test [6] was “resistant to histone acetylation; also recorded: resistance”; in test [7] it was “more sensitive”; in test [7] (listed as TSA), “show resistance to histone acetylation”. The tumor shrinkage entry in test [3] (HDAC2-mutant RKO and Co115 xenografts in nude mice) is listed as “remained highly resistant”; in test [3] (HDAC2-mutant RKO and Co115 xenografts in nude mice, listed as TSA), “remained resistant”; in test [3] (HDAC2-proficient HCT-116 xenografts in nude mice) it was “only able to accomplish these effects in the HDAC2-proficient cell line (HCT-116)”. Besides, the “biochemical and cellular (antiproliferative and proapoptotic) effects of HDAC inhibitors” value in test [4] (HDAC2-deficient cancer cells, general statement) is reported as “resistant; also recorded: impairs”. Besides, the cell growth inhibition entry in test [4] (HDAC2-deficient cells (RKO, Co115), TSA 0-1000 nM, 48 h) is “remained highly resistant”; in test [4] (HDAC2-deficient cells (RKO, Co115), TSA 0-1000 nM, 48 h, listed as TSA), “marked resistance; also recorded: enhanced resistance”; in test [4] (setting [10]) it was “only able to accomplish these effects in the HDAC2-proficient cell lines”; in test [4] (setting [11]) it was “induces”. Moreover, the “G2/M cell cycle arrest” value in test [5] (HDAC2-mutant cells (RKO)) is “remained highly resistant”; in test [5] (HDAC2-mutant cells (RKO), listed as TSA), “marked resistance”; in test [5] (HDAC2-proficient cell lines) it was “only able to accomplish these effects in the HDAC2-proficient cell lines”; in test [5] (HDAC2-proficient cell lines, listed as TSA), “induces”. Besides, the induction of apoptosis entry in test [1] (HDAC2-mutant cells (RKO), TSA) is listed as “remained highly resistant”; in test [1] (HDAC2-mutant cells (RKO), TSA, listed as TSA) it was “marked resistance”; in test [1] (setting [10]) it was “only able to accomplish these effects in the HDAC2-proficient cell lines”; in test [1] (setting [11]), “induces”.

Consider `CCCC(CCC)C(=O)[O-].[Na+]` [valproate, sodium valproate], for which the “hyperacetylation of histones H3 and H4” value in test [2] (setting [8]) is recorded as “induce hyperacetylation in all cells; also recorded: able to induce hyperacetylation”. Also, the inhibition of proliferation result in test [4] is given as “significantly inhibited proliferation”. Further, in test [5], the “blockage of the cell cycle at G2/M” value was “able to induce blockage of the cell cycle at G2/M”. Moreover, in test [1] (setting [9]), the induction of apoptosis result is “induced apoptosis”.
